Source: article PMC4853715, “Design, Synthesis and Antitumor Activity of Novel link-bridge and B-Ring Modified Combretastatin A-4 (CA-4) Analogues as Potent Antitubulin Agents” (Scientific Reports, 2016)

Key:
[1] = test system: Tubulin isolated from porcine brain tissue; assay: Tubulin polymerization assay (kit, absorbance 340 nm); assay type: biochemical; conditions: 37 °C
Experimental: Tubulin polymerization was determined with the tubulin polymerization assay kit (Cytoskeleton, Denver, CO which was purchased from Cytoskeleton, Beyotime, China. Tubulin isolated from porcine brain tissue was used in this commercial kit.) It is based on the principal that light is scattered by microtubules to an extent that is proportional to the concentration of the microtubule polymer. Compounds that interact with tubulin will alter the polymerization of tubulin, and this can be detected using a spectrophotometer. Tubulin polymerization dynamics was monitored through measuring the change of absorbance at 340 nm every 2 min for 30 min at 37 °C on a spectrophotometer (Perkin-Elmer).

[2] = Body weight of treated xenograft mice; assay type: in vivo, BALB/c nude mice; conditions: whole treatment period
Experimental: (§1) Male BALB/c nude mice, five weeks old and weighing 18–22 g, were supplied by Shanghai Laboratory Animal Limited Company. The mice were raised in air-conditioned rooms under controlled lighting (12 h light-dark cycle at 24 °C) and were fed with standard laboratory food and water ad libitum. Before injection into the mice, the A549 cells were harvested by trypsinization and washed three times with cold serum-free medium and then injected in a total volume of 0.1 mL using a 1 mL latex-free syringe (BD) within 30 min of harvest. Mice were inoculated subcutaneously with A549 cells (5.0 × 10^6) on their shoulders. […] The control group received 0.9% normal saline. Tumor size was measured once every 2 days in two per-pendicular dimensions with Vernier calipers and converted to tumor volume (TV) using the formula: (ab^2)/2, where a and b refer to the longer and shorter dimensions, respectively. The body weight of the animals was measured twice a week to assess toxicity of the treatments at the same time as the tumor dimension measurement and the mortality was monitored daily. After the treatments for eight weeks, the animals were euthanized by cervical dislocation. This study conformed to the Guide for the Care and Use of Laboratory Animals as published by the US National Institutes of Health and was approved by the Institutional Ethics Review Board of Nanjing University.

Bovine brain tubulin = assay: Effects on tubulin polymerization (turbidimetric assembly); assay type: biochemical; conditions: 10 μM tubulin, 30 °C, 20 min incubation; read-out: Tubulin inhibition IC50
Experimental: Bovine brain tubulin was purified as described previously. To evaluate the effect of the compounds on tubulin assembly in vitro, compounds of varying concentrations were preincubated with 10 μM tubulin in glutamate buffer at 30 °C and then cooled to 0 °C. After addition of GTP, the mixtures were transferred to 0 °C cuvettes in a recording BioTek Synergy 4 multifunction microplate spectrophotometer and warmed up to 30 °C and the assembly of tubulin was observed turbidimetrically (TU660, USA).

A549 xenograft tumor = assay: In vivo anti-tumor activity, A549 xenograft; parameters: species or system BALB/c nude mice; conditions: for average weight of the excised tumors: control group 1.802 g; for tumor growth reduction versus vehicle at end of observation: intraperitoneal, every other day
Experimental: Mice were subcutaneously inoculated with injections of 5.0 × 10^6 cells/nude mice. After 12–14 days, tumor sizes were determined using micrometer calipers, and then nude mice with similar tumor volume (~100 mm^3, eliminate mice with tumors that are too large or too small) were randomly divided them into four groups (with six nude mice/group). […] Both drugs, as well as the vehicle control, were administered every other day for the entire period of observation.
as §1

[3] = test system: Cyclin B1, Cdc25c, Cdc2, P21 in A549 cells; assay: Western blot of G2/M-related proteins; assay type: cell-based, human; conditions: A549, 0.5-2.0 μM 48 h; 3.0 μM 12-48 h
Experimental: Total cellular proteins are extracted with lysis buffer (50 mmol/l Tris [pH 7.4], 150 mmol/l NaCl, 1% Triton X-100, 1% deoxycholicphenyl methylsulfonyl fluoride, 1 mg/ml aprotinin, 5.0 mmol/l sodium pyrophosphate, […] leupeptin, 0.1 mmol/l phenylmethylsulfonyl fluoride, and 1 mmol/l DTT). Protease inhibitors are added immediately before use. The cells are harvested at the end of treatment and extracted for western blot analysis as described previously. After washing twice with PBS, the cultured cells were collected and lysed in lysis buffer (100 mmol/l Tris-Cl, pH 6.8, 4% (m/v) SDS, 20% (v/v) glycerol, 200 mmol/l β-mercaptoethanol, 1 mmol/l phenylmethylsulfonyl fluoride, and […] aprotinin). The lysates were centrifuged at 13,000 × g for 15 min at 4 °C. The concentration of total proteins was measured using the BCA assay method with Varioskan spectrofluorometer and spectrophotometer (Thermo) at 562 nm. Protein samples were separated with 15% SDS-PAGE and transferred onto the polyvinyldifluoride (PVDF) membranes (Millipore, IPVH 304 F0). Immune complexes were formed by incubation of proteins with primary antibodies overnight at 4 °C followed by IRDye^TM 800 conjugated second antibody for 1 hour at 37 °C. Immunoreactive protein bands were detected with an Odyssey Scanning System (LI-COR Biosciences, 9201-03). Antibodies: primary antibodies of cyclin B1, Cdc2, p-Cdc2 (Thr14/Tyr15), Cdc25C, and p21WAF1/Cip1 were all obtained from EPITOMICS (Abcam, Cambridge, UK); antibodies of Bax and Bcl-2 were obtained from Bioworld (Bioworld Technology, Inc., MN, USA); antibodies of caspase-3, and PARP were all obtained from Santa Cruz (Santa Cruz, CA); and antibody of GAPDH was from Boster (Wuhan, China). The secondary antibodies peroxidase-conjugated affinipure Goat Anti-Mouse IgG (H + L) (111-035-003), peroxidase-conjugated affinipure Goat Anti-Rabbit IgG (H + L) (111-035-003) were obtained from Jackson Immuno Research Laboratories, Inc. (USA).

A549 cells = assay: Apoptosis assay, Annexin V-FITC/PI flow cytometry; assay type: cell-based, human; conditions: A549, 0.8 μM
Experimental: The percentages of apoptotic cells were estimated by staining with Annexin-V-FITC and with a PI Apoptosis Detection Kit (KGA105, Keygen biotech, China) according to the manufacturer’s instructions with some modifications. In brief, collected cells were washed once with PBS and subsequently washed once with binding buffer, and then stained with Annexin V-FITC and propidium iodide (PI) in the binding buffer for 20 min at room temperature in the dark. Apoptotic cells were quantified using a […] plotting at least 10,000 events per sample. To quantify the data, the frequencies in all quadrants were analyzed using flowjo 7.6.1 software. Both early apoptotic (Annexin V-positive, PI-negative) and late apoptotic (double positive of Annexin V and PI) cells were detected.

[4] = test system: 293T, Macrophage, and L02; assay: MTT assay on non-cancer cell lines; assay type: cell-based, human

## COc1cc(/C=N/NC(=O)c2cn(Cc3ccccc3)c3ccccc23)cc(OC)c1OC [Compound 7]
[1]; 1.0 μM
  tubulin polymerization (in words): slightly inhibiting
[1]; 5.0 μM
  tubulin polymerization (in words): nearly completely blocked
[2]
  body weight changes during treatment: no significant weight changes
Bovine brain tubulin
  IC50: 4.46 µM
A549 xenograft tumor; 20 mg/kg group
  average weight of the excised tumors: 0.951 g
A549 xenograft tumor; 20 mg/kg
  tumor growth reduction versus vehicle at end of observation: 47%
A549 xenograft tumor; 30 mg/kg group
  average weight of the excised tumors: 0.553 g
A549 xenograft tumor; 30 mg/kg
  tumor growth reduction versus vehicle at end of observation: 70%
[3]
  cdc25c expression: down-regulated in a dose-dependent and time-dependent manner
  cyclinB1 expression: down-regulated in a dose-dependent and time-dependent manner
  p21 expression: increased
A549 cells; 12 h
  early apoptosis (Q3): 1.84%
A549 cells; 24 h
  total percentage of early and late apoptotic cells: 33.05%
A549 cells; 48 h
  total percentage of early and late apoptotic cells: 77.2%
[4]
  cytotoxic effects on three normal human cells (in words): minimal
